Assay: xn = mol fraction of the nth substance listed
Conditions: 100 kPa, Liquid; for speed of sound: Frequency=3 MHz, Single path-length method; for mass density: Vibrating tube method

CC(C)NC(C)C [diisopropylamine] + CCCC(C)O
Conditions	mass density, 293.15 K [kg/m3]	mass density, 298.15 K [kg/m3]	mass density, 303.15 K [kg/m3]	mass density, 308.15 K [kg/m3]	speed of sound, 293.15 K [m/s]	speed of sound, 298.15 K [m/s]	speed of sound, 303.15 K [m/s]	speed of sound, 308.15 K [m/s]
x1 = 0.0998	803.093	798.887	794.621	790.277	1248.1	1229	1209.9	1190.3
x1 = 0.2001	795.724	791.357	786.936	782.457	1241.1	1220.9	1200.8	1181.5
x1 = 0.3	787.848	783.455	778.721	774.03	1230	1209.5	1189.3	1168.8
x1 = 0.4001	778.463	773.871	769.242	764.565	1216.8	1196.3	1175.3	1154.3
x1 = 0.5006	768.901	764.237	759.54	754.802	1201.8	1180.2	1158.9	1137.8
x1 = 0.6001	758.906	754.192	749.437	744.665	1185.2	1164	1142.1	1120.9
x1 = 0.678	751.419	746.673	741.893	737.079	1172.8	1151	1129.1	1107.4
x1 = 0.7975	738.446	733.65	728.827	723.973	1152.6	1130.2	1108.1	1086.2
x1 = 0.8993	728.166	723.262	718.39	713.692	1132.8	1110.2	1087.8	1063.8
x1 = 1	717.305	712.441	707.55	702.661	1116.4	1093.8	1071.1	1043.5

CCCCNCCCC [dibutylamine] + CCC(C)O
Conditions	mass density, 293.15 K [kg/m3]	mass density, 298.15 K [kg/m3]	mass density, 303.15 K [kg/m3]	mass density, 308.15 K [kg/m3]	speed of sound, 293.15 K [m/s]	speed of sound, 298.15 K [m/s]	speed of sound, 303.15 K [m/s]	speed of sound, 308.15 K [m/s]
x1 = 0.0995	802.339	798.045	793.785	789.452	1242.3	1223.7	1205	1186.7
x1 = 0.2027	796.429	792.197	787.914	783.574	1249.9	1231	1211.9	1193.6
x1 = 0.3027	791.522	787.26	782.952	778.597	1254.5	1235.3	1216.2	1197.1
x1 = 0.3993	786.764	782.487	778.177	773.83	1257.8	1238.8	1219.4	1200.1
x1 = 0.4995	781.846	777.578	773.281	768.951	1260.6	1241.1	1221.7	1202.6
x1 = 0.6007	776.991	772.741	768.441	764.17	1261	1241.4	1221.9	1202.6
x1 = 0.7	772.61	768.394	764.156	759.896	1261.9	1242.7	1223.1	1203.9
x1 = 0.8002	768.643	764.449	760.24	756.011	1263.6	1243.7	1224	1204.4
x1 = 0.8989	764.755	760.595	756.428	752.248	1264.1	1244.4	1224.6	1204.8
x1 = 1	759.579	755.48	751.374	747.268	1260.1	1240.1	1220.3	1200.6

From the NIST ThermoML archive (doi:10.1016/j.jct.2018.12.012)
